Converted amounts (≈) assume the structure as drawn.

Holding throughout (type): functional
One experiment relates to Klebsiella pneumoniae. In words: In vitro antibacterial activity against Klebsiella X26.
The test system of another experiment is Pseudomonas aeruginosa. In words: In vitro antibacterial activity against Pseudomonas X239.
The subject of the next experiment is Serratia marcescens. Description: In vitro antibacterial activity against Serratia X99.
The subject of the next experiment is Klebsiella aerogenes. Description: In vitro antibacterial activity against Enterobacter aerogenes C32.
For another experiment, the system named is Haemophilus influenzae. Description: In vitro antibacterial activity against Haemophilus influenza C.L.
Another experiment concerns Streptococcus pneumoniae. In words: In vitro antibacterial activity against Streptococcus pneumoniae PARK.
In the next experiment the test system is Staphylococcus aureus. In words: In vitro antibacterial activity against Staphylococcus aureus X1.1.
The subject of a further experiment is Escherichia coli. Description: In vitro antibacterial activity against Escherichia coli EC14.

`CCOC(=O)C1=C(C(=O)O)N2C(=O)C(NC(=O)/C(=N\OC)c3csc(N)n3)CN2C1` (configuration not stated): the MIC with Klebsiella pneumoniae was 8 µg/mL (≈ 18.2 µM); against Pseudomonas aeruginosa, above 128 µg/mL; against Serratia marcescens, 16 µg/mL (≈ 36.5 µM); against Klebsiella aerogenes, 32 µg/mL (≈ 73 µM); against Haemophilus influenzae, 32 µg/mL (≈ 73 µM); in the experiment on Streptococcus pneumoniae it was 8 µg/mL (≈ 18.2 µM). Also, the MIC against Staphylococcus aureus is above 128 µg/mL; against Escherichia coli, 16 µg/mL (≈ 36.5 µM).
For the molecule `CO/N=C(\C(=O)NC1CN2CC(C#N)=C(C(=O)O)N2C1=O)c1csc(N)n1` (configuration not stated), the MIC against Klebsiella pneumoniae was 0.5 µg/mL (≈ 1.28 µM); in the experiment with Pseudomonas aeruginosa, above 128 µg/mL; against Serratia marcescens, 2 µg/mL (≈ 5.11 µM); against Klebsiella aerogenes it was 2 µg/mL (≈ 5.11 µM); in the experiment with Haemophilus influenzae, 1 µg/mL (≈ 2.56 µM); against Streptococcus pneumoniae, 0.5 µg/mL (≈ 1.28 µM). Further, the results for the MIC against Staphylococcus aureus and against Escherichia coli were 64 µg/mL (≈ 164 µM) and 0.5 µg/mL (≈ 1.28 µM), respectively.
For `CO/N=C(\C(=O)NC1CN2CC(S(C)(=O)=O)=C(C(=O)O)N2C1=O)c1csc(N)n1` (configuration not stated), the MIC was 0.25 µg/mL (≈ 0.562 µM) in the experiment with Klebsiella pneumoniae; above 128 µg/mL in the experiment with Pseudomonas aeruginosa; 0.25 µg/mL (≈ 0.562 µM) in the experiment with Serratia marcescens; 0.25 µg/mL (≈ 0.562 µM) in the experiment on Klebsiella aerogenes; 2 µg/mL (≈ 4.5 µM) against Haemophilus influenzae; 0.25 µg/mL (≈ 0.562 µM) against Streptococcus pneumoniae. Moreover, the MIC was found to be 64 µg/mL (≈ 144 µM) against Staphylococcus aureus and 0.125 µg/mL (≈ 0.281 µM) against Escherichia coli.
In the case of `CCS(=O)(=O)C1=C(C(=O)O)N2C(=O)[C@@H](NC(=O)/C(=N\OC)c3csc(N)n3)CN2C1`, the MIC against Klebsiella pneumoniae was 0.125 µg/mL (≈ 0.273 µM); in the experiment on Pseudomonas aeruginosa, above 128 µg/mL; in the experiment on Serratia marcescens, 0.25 µg/mL (≈ 0.545 µM); against Klebsiella aerogenes it was 0.25 µg/mL (≈ 0.545 µM); in the experiment with Haemophilus influenzae, 0.5 µg/mL (≈ 1.09 µM); in the experiment with Streptococcus pneumoniae it was 0.125 µg/mL (≈ 0.273 µM). Besides, the MIC is 32 µg/mL (≈ 69.8 µM) with Staphylococcus aureus and 0.125 µg/mL (≈ 0.273 µM) with Escherichia coli.
Take `CO/N=C(\C(=O)N[C@H]1CN2CC(S(=O)(=O)c3ccccc3)=C(C(=O)O)N2C1=O)c1csc(N)n1`: the MIC in the experiment with Klebsiella pneumoniae was 0.125 µg/mL (≈ 0.247 µM); in the experiment on Pseudomonas aeruginosa it was above 128 µg/mL; with Serratia marcescens, 1 µg/mL (≈ 1.97 µM); in the experiment with Klebsiella aerogenes it was 1 µg/mL (≈ 1.97 µM); in the experiment on Haemophilus influenzae it was 0.5 µg/mL (≈ 0.987 µM); in the experiment with Streptococcus pneumoniae it was 0.125 µg/mL (≈ 0.247 µM). For the same molecule, the MIC turned out to be 32 µg/mL (≈ 63.2 µM) in the experiment on Staphylococcus aureus and 0.5 µg/mL (≈ 0.987 µM) against Escherichia coli.
In the case of `CO/N=C(\C(=O)NC1CN2CCC(C(C)=O)=C(C(=O)O)N2C1=O)c1csc(N)n1` (configuration not stated), the MIC against Klebsiella pneumoniae, in the experiment with Pseudomonas aeruginosa, against Serratia marcescens, in the experiment with Klebsiella aerogenes, in the experiment with Haemophilus influenzae and with Streptococcus pneumoniae was above 128 µg/mL in each case. The MIC with Staphylococcus aureus and with Escherichia coli was above 128 µg/mL each time.
Consider `CCC(=O)C1=C(C(=O)O)N2C(=O)C(NC(=O)/C(=N\OC)c3csc(N)n3)CN2C1` (configuration not stated), for which the MIC in the experiment with Klebsiella pneumoniae was 2 µg/mL (≈ 4.73 µM); in the experiment on Pseudomonas aeruginosa it was above 128 µg/mL; against Serratia marcescens, 4 µg/mL (≈ 9.47 µM); with Klebsiella aerogenes, 8 µg/mL (≈ 18.9 µM); with Haemophilus influenzae it was 8 µg/mL (≈ 18.9 µM); with Streptococcus pneumoniae, 2 µg/mL (≈ 4.73 µM). Further, the MIC with Staphylococcus aureus was found to be 64 µg/mL (≈ 152 µM); against Escherichia coli, 4 µg/mL (≈ 9.47 µM).
For the molecule `CO/N=C(\C(=O)NC1CN2CC(C(=O)OC)=C(C(=O)O)N2C1=O)c1csc(N)n1` (configuration not stated), the MIC in the experiment with Klebsiella pneumoniae is 8 µg/mL (≈ 18.9 µM); in the experiment with Pseudomonas aeruginosa it was above 128 µg/mL; with Serratia marcescens, 8 µg/mL (≈ 18.9 µM); against Klebsiella aerogenes, 16 µg/mL (≈ 37.7 µM); in the experiment with Haemophilus influenzae it was 32 µg/mL (≈ 75.4 µM); in the experiment with Streptococcus pneumoniae, 8 µg/mL (≈ 18.9 µM). For the same molecule, the MIC was above 128 µg/mL with Staphylococcus aureus and 8 µg/mL (≈ 18.9 µM) with Escherichia coli.
Turning to `CCCOC(=O)C1=C(C(=O)O)N2C(=O)C(NC(=O)/C(=N\OC)c3csc(N)n3)CN2C1` (configuration not stated), the MIC is 8 µg/mL (≈ 17.7 µM) with Klebsiella pneumoniae; above 128 µg/mL against Pseudomonas aeruginosa; 32 µg/mL (≈ 70.7 µM) against Serratia marcescens; 64 µg/mL (≈ 141 µM) in the experiment with Klebsiella aerogenes; 32 µg/mL (≈ 70.7 µM) in the experiment with Haemophilus influenzae; 8 µg/mL (≈ 17.7 µM) in the experiment with Streptococcus pneumoniae. Moreover, the MIC is above 128 µg/mL in the experiment with Staphylococcus aureus and 32 µg/mL (≈ 70.7 µM) against Escherichia coli.
Consider `CO/N=C(\C(=O)NC1CN2CC(C(=O)OCc3ccccc3)=C(C(=O)O)N2C1=O)c1csc(N)n1` (configuration not stated), for which the MIC in the experiment with Klebsiella pneumoniae was 64 µg/mL (≈ 128 µM); with Pseudomonas aeruginosa, above 128 µg/mL; against Serratia marcescens, 64 µg/mL (≈ 128 µM); in the experiment on Klebsiella aerogenes it was 64 µg/mL (≈ 128 µM); against Haemophilus influenzae, 64 µg/mL (≈ 128 µM); with Streptococcus pneumoniae it was 64 µg/mL (≈ 128 µM). The figures for the MIC against Staphylococcus aureus and with Escherichia coli were 128 µg/mL (≈ 256 µM) and 64 µg/mL (≈ 128 µM), respectively.
Turning to `CO/N=C(\C(=O)NC1CN2CCC(C(=O)OC)=C(C(=O)O)N2C1=O)c1csc(N)n1` (configuration not stated), the MIC in the experiment with Klebsiella pneumoniae, in the experiment on Pseudomonas aeruginosa, in the experiment with Serratia marcescens, against Klebsiella aerogenes, in the experiment with Haemophilus influenzae and in the experiment on Streptococcus pneumoniae was above 128 µg/mL each time. Moreover, the MIC against Staphylococcus aureus and in the experiment on Escherichia coli was above 128 µg/mL throughout.
As for `CO/N=C(\C(=O)N[C@H]1CN2CC(S(C)(=O)=O)=C(C(=O)O)N2C1=O)c1csc(N)n1`, the MIC against Klebsiella pneumoniae was 0.125 µg/mL (≈ 0.281 µM); in the experiment on Pseudomonas aeruginosa, above 128 µg/mL; in the experiment on Serratia marcescens it was 0.125 µg/mL (≈ 0.281 µM); in the experiment with Klebsiella aerogenes, 0.25 µg/mL (≈ 0.562 µM); against Haemophilus influenzae it was 0.5 µg/mL (≈ 1.12 µM); with Streptococcus pneumoniae, 0.25 µg/mL (≈ 0.562 µM). In addition, the MIC in the experiment on Staphylococcus aureus worked out at 32 µg/mL (≈ 72 µM); in the experiment with Escherichia coli, 0.06 µg/mL (≈ 0.135 µM).
On to `CO/N=C(\C(=O)N[C@H]1CN2CC(C#N)=C(C(=O)O)N2C1=O)c1csc(N)n1`, for which the MIC against Klebsiella pneumoniae was 0.25 µg/mL (≈ 0.639 µM); against Pseudomonas aeruginosa it was above 128 µg/mL; with Serratia marcescens it was 1 µg/mL (≈ 2.56 µM); with Klebsiella aerogenes, 1 µg/mL (≈ 2.56 µM); with Haemophilus influenzae, 0.5 µg/mL (≈ 1.28 µM); with Streptococcus pneumoniae, 0.25 µg/mL (≈ 0.639 µM). Also, the figures for the MIC against Staphylococcus aureus and against Escherichia coli were 64 µg/mL (≈ 164 µM) and 0.25 µg/mL (≈ 0.639 µM), respectively.
Turning to `CO/N=C(\C(=O)NC1CN2CC(C(C)=O)=C(C(=O)O)N2C1=O)c1csc(N)n1` (configuration not stated), the MIC in the experiment on Klebsiella pneumoniae was 1 µg/mL (≈ 2.45 µM); in the experiment with Pseudomonas aeruginosa, above 128 µg/mL; against Serratia marcescens it was 4 µg/mL (≈ 9.79 µM); against Klebsiella aerogenes, 2 µg/mL (≈ 4.9 µM); in the experiment on Haemophilus influenzae it was 8 µg/mL (≈ 19.6 µM); in the experiment with Streptococcus pneumoniae, 1 µg/mL (≈ 2.45 µM). The MIC against Staphylococcus aureus was 32 µg/mL (≈ 78.4 µM); against Escherichia coli, 2 µg/mL (≈ 4.9 µM).

The record behind these values is ChEMBL document CHEMBL1126957, “Structure-activity relationship within a series of pyrazolidinone antibacterial agents. 1. Effect of nuclear modification on in vitro activity” (1993).
